Where “and” joins values, the source holds several entries; their conditions need not be identical. Equal values may be shown once.
Test system: 941728-121-R-J1-PDC complex spheroid viability
Experiment: Anticancer human tumor 941728-121-R-J1-PDC patient-derived lung adenocarcinoma cell line growth inhibition [RAS]
Settings: for viability, T/C: stronger effect = lower value
Source text: RAS pathway inhibitors in Combinations in Complex Spheroids
A high-throughput screen of multi-cell type tumor spheroids was designed to identify active combinations of RAS pathway inhibitors and targeted small molecules. Complex spheroids include a stromal component modeled by human endothelial cells (HUVEC) and fibroblasts modeled by human mesenchymal stem cells (MSCs). The concentration ranges selected for each drug and investigational agent were based upon clinically achievable concentrations if the clinical Cmax of the agent was known.
Compounds. The drugs and investigational agents: abemaciclib (NSC768073), cobimetinib (NSC768068), divarasib (GDC6063, NSC841802), docetaxel (NSC628503), GDC-1971 (RLY-1971, NSC841576), gemcitabine (NSC613327), inavolisib (NSC800729), ipatasertib (NSC767898), KB-0742 (NSC834161), MRTX-1133 (NSC836407), osimertinib (NSC779217), RMC-4630 (NSC839698), RMC-6236 (NSC851965), RMC-6291 (NSC852671), Ro-3306 (NSC812927), sapanisertib (NSC764658), SN-38 (NSC673596), staurosporine (NSC755774), SY5609 (NSC837396), and tovorafenib (DAY101, NSC766906), were obtained from the National Cancer Institute (NCI) Developmental Therapeutics Program Chemical Repository. The FDA-approved anticancer drug set is available from the NCI Developmental Therapeutics Program. […] The stock solutions were prepared in dimethyl sulfoxide (DMSO, Sigma-Aldrich, St. Louis, MO, cat. D2650) at 800-fold the tested concentration and stored at -70 degrees C prior to their use. All drugs and investigational agents were tested over a range starting from a high concentration at or near the clinical Cmax and decreasing in half-log increments. If the clinical Cmax for an agent had not been determined, the highest concentration tested was 10 microM.
Cell Culture. All cells were maintained in an incubator at 37 degrees C and 5% CO2 with 95% humidity. The PDC lines were cultured according to standard operating procedures established by the NCI PDMR. All PDCs were thawed and cultured in Matrigel-coated flasks prepared with a working solution of 1X Ham's F-12 nutrient mix, without supplementation (Invitrogen, Waltham, MA, cat. 11765054), 100 U/mL penicillin-streptomycin (Invitrogen, cat. 15140122), and 2.5% Matrigel (Corning Inc., Corning, NY, cat. 354248) for the first three passages. The 362531-283-R-J2-PDC and 782815-120-R-J1-PDC lines were cultured in 6C/Colon 1B media, which includes advanced DMEM/F-12 (Thermo Fisher Scientific, cat. 12634028), 10 mM HEPES (Thermo Fisher Scientific, cat. 15630080), 1X GlutaMAX supplement (Thermo Fisher Scientific, cat. 35050061), 0.1 mg/mL primocin (InvivoGen, San Diego, CA, cat. ant-pm-2), 10% defined fetal bovine serum, heat inactivated (HyClone Laboratories Inc., Logan, UT, cat. SH30070.03HI), 50% L-WRN conditioned media (ATCC, cat. CRL-3276), 1.25 mM N-Acetyl-L-cysteine (Sigma-Aldrich, cat. A9165), 10 mM nicotinamide (Sigma-Aldrich, cat. N0636), 1X B-27 supplement (Thermo Fisher Scientific, cat. 17504044), 1X N-2 supplement (Thermo Fisher Scientific, cat. 17502048), 50 ng/mL human EGF (Thermo Fisher Scientific, cat. PHG0311), and 10 microM Y-27632 dihydrochloride (Tocris Bioscience, cat. 1254). The K12877-001-R-J1-PDC line was cultured in 6I media, which includes all 6C/Colon 1B media plus 10 ng/mL human FGF-10 (PeproTech, cat. 100-26), 1 ng/mL human FGF-2 (PeproTech, cat. 100-18B), 1 µM prostaglandin E2 (Tocris Bioscience, cat. 2296), […] hydrocortisone (Sigma-Aldrich, cat. H4001), and […] bovine insulin (Sigma-Aldrich, cat. I6634). The K86415-001-R-J1-PDC line was cultured in 6D media, which includes all 6C/Colon 1B media components minus the L-WRN conditioned media. The 485176-168-R4-J1-PDC was cultured in PANC media, which includes all 6C/Colon 1B media plus 100 ng/mL human FGF-10 (PeproTech, cat. 100-26), 500 nM SB-431542 (Selleckchem, cat. S1067), and 10 nM gastrin (Tocris Bioscience, cat. 3006). […]

[1] = compound alone, run of 07/09/2024
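Further: spheroids exposed to compounds for 7 days before readout.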
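Wherever viability, T/C is given: 100% = DMSO vehicle control viability.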

In the case of `C=CC(=O)N1CCN(c2nc(OCC3CCCN3C)nc3c(F)c(-c4nc(N)cc(C)c4C(F)(F)F)c(Cl)cc23)C(C)C1` (stereo not given), the viability, T/C (compound 0.00316 µM) is reported as 21.7% [middle of 12 runs], the viability, T/C (compound 0.01 µM) is reported as 19.7% [middle of 12 runs] and the viability, T/C (compound 0.0316 µM) is reported as 19.9% [middle of 12 runs]. The viability, T/C (compound 0.1 µM) was 19.5% [middle of 12 runs], the viability, T/C (compound 0.316 µM) was 22.8% [middle of 12 runs] and the viability, T/C (compound 1 µM) was 21% [middle of 12 runs]. The IC50 (compound alone, run of 07/15/2024) was < 3.16 nM and the IC50 (curve of compound) was < 3.16 nM.
`C=CC(=O)Nc1cc(Nc2nccc(-c3cn(C)c4ccccc34)n2)c(OC)cc1N(C)CCN(C)C` was tested, and the viability, T/C (compound 0.00316 µM) was 98.4% [middle of 4 runs], the viability, T/C (compound 0.01 µM) was 82.8% [middle of 4 runs] and the viability, T/C (compound 0.0316 µM) was 68.2% [middle of 4 runs]. For the same molecule, the viability, T/C (compound 0.1 µM) was 67.7% [middle of 4 runs], the viability, T/C (compound 0.316 µM) was 55.6% [middle of 4 runs] and the viability, T/C (compound 1 µM) was 47.3% [middle of 4 runs].
`CC(C)n1nc(-c2ccc3oc(N)nc3c2)c2c(N)ncnc21` was tested, and the viability, T/C (compound 0.000316 µM) was 102% [middle of 4 runs], the viability, T/C (compound 0.001 µM) was 86.9% [middle of 4 runs] and the viability, T/C (compound 0.00316 µM) was 60.5% [middle of 4 runs]. For the same molecule, the viability, T/C (compound 0.01 µM) was 55.1% [middle of 4 runs], the viability, T/C (compound 0.0316 µM) was 40.9% [middle of 4 runs] and the viability, T/C (compound 0.1 µM) was 34.5% [middle of 4 runs]. For the same molecule, the IC50 (curve of compound) was 11.4 nM [middle of 4 runs].
`CC1(C)CCC(Nc2ncc(C(F)(F)F)c(-c3c[nH]c4c(P(C)(C)=O)c(C#N)ccc34)n2)CN1` (stereo not given) was tested, and the viability, T/C (compound 0.000949 µM) was 83.9% [middle of 4 runs], the viability, T/C (compound 0.003 µM) was 79.2% [middle of 4 runs] and the viability, T/C (compound 0.00949 µM) was 62.7% [middle of 4 runs]. For the same molecule, the viability, T/C (compound 0.03 µM) was 63.8% [middle of 4 runs], the viability, T/C (compound 0.0949 µM) was 65% [middle of 4 runs] and the viability, T/C (compound 0.3 µM) was 53.4% [middle of 4 runs]. The IC50 (curve of compound) was > 300 nM.
For `CCN1CCN(Cc2ccc(Nc3ncc(F)c(-c4cc(F)c5nc(C)n(C(C)C)c5c4)n3)nc2)CC1`, the viability, T/C (compound 0.00316 µM) was 93.9% [middle of 4 runs], the viability, T/C (compound 0.01 µM) was 80.5% [middle of 4 runs] and the viability, T/C (compound 0.0316 µM) was 65.2% [middle of 4 runs]. The viability, T/C (compound 0.1 µM) was 57.7% [middle of 4 runs], the viability, T/C (compound 0.316 µM) was 70.8% [middle of 4 runs] and the viability, T/C (compound 1 µM) was 72.4% [middle of 4 runs]. The IC50 (curve of compound) was > 1000 nM.
`CCc1c2c(nc3ccc(O)cc13)-c1cc3c(c(=O)n1C2)COC(=O)[C@]3(O)CC` was tested, and the viability, T/C (compound 0.000949 µM) was 85.2% [middle of 4 runs], the viability, T/C (compound 0.003 µM) was 73.3% [middle of 4 runs] and the viability, T/C (compound 0.00949 µM) was 62.9% [middle of 4 runs]. For the same molecule, the viability, T/C (compound 0.03 µM) was 67.4% [middle of 4 runs], the viability, T/C (compound 0.0949 µM) was 58.9% [middle of 4 runs] and the viability, T/C (compound 0.3 µM) was 50% [middle of 4 runs]. For the same molecule, the IC50 (curve of compound) was 44.2 nM and > 300 nM and 89 nM.
For `CCn1c(-c2cc(N3CCN(C)CC3)cnc2C(C)OC)c2c3cc(ccc31)-c1csc(n1)CC(NC(=O)C1CC1C)C(=O)N1CCCC(N1)C(=O)OCC(C)(C)C2` (stereo not given), the viability, T/C (compound 0.000949 µM) was 28.7% [middle of 8 runs], the viability, T/C (compound 0.003 µM) was 23.8% [middle of 8 runs] and the viability, T/C (compound 0.00949 µM) was 17.1% [middle of 8 runs]. The viability, T/C (compound 0.03 µM) was 13.9% [middle of 8 runs], the viability, T/C (compound 0.0949 µM) was 14.7% [middle of 8 runs] and the viability, T/C (compound 0.3 µM) was 13.4% [middle of 8 runs]. For the same molecule, the IC50 [1] was < 0.949 nM.
With `CCn1c(-c2cccnc2C(C)OC)c2c3cc(ccc31)N1CCOC(CC(NC(=O)C(C(C)C)N(C)C(=O)C3(F)CCN(C(=O)C#CC(C)(C)N(C)C)CC3)C(=O)N3CCCC(N3)C(=O)OCC(C)(C)C2)C1` (stereo not given) the viability, T/C (compound 0.000949 µM) was 22.6% [middle of 8 runs], the viability, T/C (compound 0.00949 µM) was 24.6% [middle of 8 runs] and the viability, T/C (compound 0.03 µM) was 24.1% [middle of 8 runs]. The viability, T/C (compound 0.0949 µM) was 24.9% [middle of 8 runs], the viability, T/C (compound 0.3 µM) was 24.9% [middle of 8 runs] and the IC50 [1] was < 0.949 nM and 4.59 nM.
In the case of `O=C(c1ccc(F)c(F)c1Nc1ccc(I)cc1F)N1CC(O)([C@@H]2CCCCN2)C1`, the viability, T/C (compound 0.00316 µM) is reported as 80.3% [middle of 4 runs], the viability, T/C (compound 0.01 µM) is reported as 69% [middle of 4 runs] and the viability, T/C (compound 0.1 µM) is reported as 42.2% [middle of 4 runs]. The viability, T/C (compound 0.316 µM) was 32.5% [middle of 4 runs] and the viability, T/C (compound 1 µM) was 27.8% [middle of 4 runs].
